Measured values from patent publication US20090068143A1, “ORALLY EFFECTIVE C[…]” (priority 2005, published 2009).
Read-outs that look alike come from different tables or passages of the source.

Columns and labels:
visceral pain = assay: Visceral pain, acetic acid induced writhing responses; type: in vivo, ICR mice; conditions: for inhibition of pain response as compared to untreated animals: 10 mg/kg p.o. in phosphate buffer; for reduction of writhing responses as compared to vehicle treated animals: second study; for activity in visceral pain model: fumaric acid up to 5 mg/kg, Gabapentin up to 200 mg/kg, celecoxib up to 10 mg/kg; for effect of antagonist alone on number of writhing responses: 1 mg/kg i.v.
Protocol: For the i.v. part of the study, compounds were dissolved in CREMOPHOR®:Ethanol and diluted 1:20 in saline prior to injection, fifteen minutes before pain induction. When compounds were delivered per os, they were dissolved in phosphate buffer or in CREMOPHOR®:Ethanol as previously described and administered 1 hour before pain induction. Each treatment group, except for controls comprising at least 30 animals, was composed of at least 6 animals. Fifteen or sixty minutes later, depending on the route selected for drug administration, the mice were injected i.p. with 10 ml/kg of 0.6% acetic acid and the number of visceral pain related behaviors (writhing, stretching, contractions of the abdomen accompanied by an elongation of the body and extension of the hind limbs) is counted over a period of 5 minutes, starting 5 minutes after the acetic acid administration. These visceral pain related behaviors are globally defined as writhing responses (WR). The results are expressed as mean number of writhing responses±SEM. Data were analyzed using analysis of variance (ANOVA) followed by post-hoc Fisher test. A value of p<0.05 was considered to be statistically significant and is indicated on the figure by an asterisk over the relevant treatment group.
The following results were obtained at 2 mg/kg i.v. of test compounds or, in the case of the study performed with cannabinoid receptor antagonists, 1 mg/kg test compound or antagonist alone and 1 mg/kg test compound+1 mg/kg antagonist. In a separate study, it was shown that analgesic activity of compounds of the invention was dose related.

[1] = system: Taxol® induced neuropathic pain; assay: Taxol® induced neuropathic pain; type: in vivo, Sprague Dawley rats; conditions: gabapentin 100 mg/kg i.p., morphine 5 mg/kg i.p.; not statistically significant
Protocol: Male Sprague Dawley rats (average body weight 150-200 g, Harlan, Israel) were administered i.p. with 6 mg/kg Taxol® (Bristol Myers Squibb, USA) every other day for 9 days. On day 13, baseline pain threshold was measured. One hour later, the animals were administered with 5 ml/kg i.p. of vehicle (PB) only and pain threshold was re-established. After an additional hour animals were treated with various doses of compound 18F ranging from 0.5 mg/kg up to 10 mg/kg administered i.p. Morphine at 5 mg/kg i.p. and gabapentin at 100 mg/kg i.p served as positive controls. Each treatment group comprised at least eight animals. One hour post drug administration pain threshold was monitored using thermal and mechanical stimuli as previously described. At the end of the study, rats were euthanized with sodium pentobarbitone 100 mg/kg i.p. Sample rats were then transfused with saline and heparinized 4% formaldehyde solution. The L4-L5 area of the spinal cord and the sciatic nerve were taken for histopathology assessment.
The time latencies for thermal hyperalgesia, and force needed to induce pain of the different treatment groups are compared, using one way ANOVA (analysis of variance), followed by Duncan's post hoc test. A p<0.05 value was considered statistically significant and is indicated on the figure by an asterisk over the relevant treatment group.

CB1 receptor = CB1 receptor (Homo sapiens, UniProt P21554); assay: CB1 binding assay
Sequence of CB1 receptor (P21554 whole entry): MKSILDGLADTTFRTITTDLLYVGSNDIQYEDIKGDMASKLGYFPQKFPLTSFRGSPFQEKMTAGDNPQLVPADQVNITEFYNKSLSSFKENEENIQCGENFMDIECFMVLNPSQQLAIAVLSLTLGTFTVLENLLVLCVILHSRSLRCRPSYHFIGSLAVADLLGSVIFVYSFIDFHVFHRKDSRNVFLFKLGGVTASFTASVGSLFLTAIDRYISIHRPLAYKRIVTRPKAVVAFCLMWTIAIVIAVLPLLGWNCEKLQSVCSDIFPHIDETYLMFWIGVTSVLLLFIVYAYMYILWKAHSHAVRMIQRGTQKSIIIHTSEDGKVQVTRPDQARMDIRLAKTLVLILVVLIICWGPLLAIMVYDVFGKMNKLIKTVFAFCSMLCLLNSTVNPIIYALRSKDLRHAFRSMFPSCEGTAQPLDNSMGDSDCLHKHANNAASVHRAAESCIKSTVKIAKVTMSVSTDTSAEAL

CB2 receptor = CB2 receptor (Homo sapiens, UniProt P34972); assay: CB2 binding assay
Sequence of CB2 receptor (P34972 whole entry): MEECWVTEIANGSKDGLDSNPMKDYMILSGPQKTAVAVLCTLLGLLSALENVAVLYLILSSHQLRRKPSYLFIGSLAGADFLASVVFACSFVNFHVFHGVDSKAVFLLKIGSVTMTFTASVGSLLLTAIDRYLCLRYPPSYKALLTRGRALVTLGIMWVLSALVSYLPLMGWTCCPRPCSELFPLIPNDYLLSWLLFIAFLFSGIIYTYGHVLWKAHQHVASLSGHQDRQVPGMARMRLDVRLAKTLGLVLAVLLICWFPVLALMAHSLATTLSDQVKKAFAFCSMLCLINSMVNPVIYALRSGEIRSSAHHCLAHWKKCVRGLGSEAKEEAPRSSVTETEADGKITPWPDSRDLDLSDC

inflammatory pain = assay: Inflammatory pain and paw edema, λ carrageenan; type: in vivo, Sprague Dawley rats
Protocol: Male Sprague Dawley rats (average body weight 200 g, Harlan, Israel) were transiently sedated by placement on dry ice for the duration of the injections. Rats were injected subcutaneously, in the subplantar region of one (right) paw with 0.1 ml of 2% w/v λ Carrageenan in sterile saline. […] Test compounds were administered p.o. by oral gavage immediately after the carrageenan injection as pretreatment. Vehicle (PB) treated animals were used as controls. Before induction of inflammatory pain and three hours after injection, the animals reactions to pain stimuli were tested in two systems. The first stimulus was thermal and assessed by the Plantar Test according to Hargreaves, using Ugo Basile Model 7370. The scale was set to an intensity of 50 arbitrary units. The latency time till the animal lift a paw as a reaction to the thermal stimulus was recorded for both the inflamed and non-inflamed hind paws. The second stimulus was mechanical (tactile) and assessed using a Dynamic Plantar Sesthesiomether (Ugo Basile Model 73400-002). […] Finally, the impact on paw edema was assessed. Paw thickness is measured using a dial thickness gauge (Spring-dial, constant low pressure gauge, Mitutoyo, TG/L-1, 0.00 mm) and paw volume is measured using a plethysmometer (model #7150, Ugo Basile, Italy). At the end of the study, animals were euthanized with an i.p. injection of 100 mg/kg pentobarbitone.
The results are measured as the differences between the two hind paws at time 0 and 3 hours both as ALT, for the latency time in the thermal part of the study, and as ΔForce, for the mechanical part of the study. The paw volume is expressed as percent from vehicle treated animals. Results are expressed as mean±SEM for each treatment group and the differences among those groups are analyzed by analysis of variance (ANOVA) followed by post-hoc Tukey's test. A value of p<0.05 was considered to be statistically significant and is indicated on the figure by an asterisk over the relevant treatment group.

MBP induced acute EAE = assay: MBP induced acute EAE; type: in vivo, Lewis rats; conditions: 30 mg/kg i.v. daily for 5 consecutive days from day of disease induction
Protocol: In the present study, EAE was induced by injection of Myelin Basic Protein (MBP), a method known to model the acute phase of MS. In this model the onset of the disease is observed by the appearance of clinical symptoms about 10 days after induction. The disease progresses and the clinical score increases and peaks around day 15 and spontaneous recovery is observed around day 23 after induction of the disease.
Female Lewis rats (average body weight 130-180 g, Harlan, Israel) were injected s.c. into the hind paws with 25 μg of purified guinea pig myelin basic protein (MBP, Sigma) emulsified in 0.1 ml of Complete Freund's Adjuvant (Difco). Animals were maintained on a 12 hours light/12 hours dark regimen, at a constant temperature of 22° C., with food and water ad libitum. Starting from day 8 following induction, animals were followed up on a daily basis. The results are recorded as clinical score; score of 0 indicates a normal animal with no clinical signs, 0.5 indicates a loss of tonicity in the tail's distal part, 1 indicates whole tail paralysis, 1.5 indicates hind legs weakness in one leg, 2 indicates hind legs weakness in two legs, 2.5 indicates fore legs paralysis in one leg, 3 indicates paralysis of all four legs, 4 indicates complete body paralysis and moribund state and 5 indicates death. The clinical score of the animals is recorded for 15 days following onset of disease until the end of the study 25 days following induction and the area under the curve (AUC) is calculated over this period of time.
Few routes of administration were assessed and the treatments were either administered intravenously (in CE vehicle) or orally by gavage (in PB vehicle) at volume dose of 5 ml/kg.
Results are expressed as mean±SEM and the differences between the treatment groups were analyzed by analysis of variance (ANOVA) followed by Tukey's post hoc test. A value of p<0.05 was considered to be statistically significant and is indicated on the figure by an asterisk over the relevant treatment group.
Compound 18A was dissolved in CREMOPHOR EL®:ethanol and further diluted in physiological buffer prior to i.v. administration. It is now disclosed that compound 18F could be dissolved directly in 80 mM phosphate buffer (pH 6.4) and administered p.o. Compound 18F was administered by oral gavage at doses of 20, 30, 40, 50 and 60 mg/kg to animals showing clinical signs of the disease. Each treatment group comprised at least 10 animals at onset of disease. At some doses, experiments were repeated up to four times.

iNOS = iNOS gene expression in LPS activated RAW 264.7 macrophages (real-time RT-PCR); type: cell-based, mouse; conditions: 10 μM, 1 h pre-treatment, 3 hrs after LPS activation
Protocol: RAW 264.7 macrophages, a mouse cell line (ATCC # TIB 71), were grown in Dulbecco's modified Eagle's medium (DMEM) with 4 mM L-glutamine adjusted to contain 1.5 g/L sodium bicarbonate, 4.5 g/L glucose, and 10% heat inactivated fetal bovine serum. Cells were grown in tissue culture flasks and seeded at appropriate density into 6 wells tissue culture plates. Four million Raw cells in half a milliliter were stimulated with 1 μg/ml Lipopolysaccharide E. coli 055:B5 (DIFCO Laboratories). The mouse macrophages were pre-treated for one hour with controls or 10 μM of test compounds, and later on activated with LPS. RNA samples were extracted from the cells 3 hrs after activation and iNOS gene expression levels were analyzed by real-time RT-PCR as previously described. For western blot analysis, compounds were tested at 1, 5 and 10 μM and cells were harvested 24 hrs after LPS stimulation. Supernatant were collected and NO secretion was analyzed using ELISA. Cells were washed 3 times with cold PBS, scrapped and lyzed in 100 μl cell lysis buffer containing 20 mM HEPES, pH 7.6, 150 mM NaCl, 1.5 mM MgCl2, 0.2 mM EDTA, 1% Triton X-100, 10% glycerol, 1 mM DTT, 1 mM PMSF, 10 μg/ml aprotinin. 5 µg/ml leupeptin, 10 mM p-nitrophenyl phosphate, 100 mM β-glycerophosphate, 1 mM sodium fluoride, and 0.1 μM sodium orthovanadate. Cells were lyzed on ice for 10 minutes before further processing.
The results of this experiment are expressed as fold activation of iNOS over non-activated macrophages, after normalization to cyclophilin A expression. Compound 18A inhibits 63% of iNOS gene expression, and compounds 18B, 18E and 18F inhibit 55%, 25% and 100% respectively. […] This surprising observation strengthen the fact that compounds of the invention, though chemically related, have distinct and unexpected properties.

CCCCC(C)(C)c1cc(O)c([C@H]2CC(=O)C3CC2C3(C)C)c(OC(=O)/C=C/C(=O)O)c1 (single isomer, unassigned; (-)) [Compound 18H, (−)-4-{4-[1,1-Dimethylpentyl]-2-fumarate-6-hydroxy-phenyl}-6,6-dimethyl-bicyclo[3.1.1]heptan-2-one]
inhibition of writhing responses as compared to vehicle treated group (visceral pain; 2 mg/kg i.v.): 38%
inhibition of pain response as compared to untreated animals (visceral pain): not effective

CN1CC[C@]23c4c5ccc(O)c4O[C@H]2[C@@H](O)C=C[C@H]3[C@H]1C5 [morphine, reference compound]
effect on pain threshold [1]: trend of increasing the pain threshold

Oc1cc2c(cc1O)CN(C(=S)NCCc1ccc(Cl)cc1)CCC2 [CPZ, Capsazepine, reference compound]
reduction of writhing responses as compared to vehicle treated animals (visceral pain; 0.5 mg/kg i.v.): no activity
reduction of writhing responses as compared to vehicle treated animals (visceral pain; 2 mg/kg i.v.): 67%

CCCCCCC(C)(C)c1cc(OC(=O)/C=C/C(=O)O)c(C2CC(=O)[C@H]3C[C@@H]2C3(C)C)c(OC(=O)/C=C/C(=O)O)c1 (single isomer, unassigned; (-)) [Compound 18G, (−)-4-{4-[1,1-Dimethylheptyl]-2,6-difumarate-phenyl}-6,6-dimethyl-bicyclo[3.1.1]heptan-2-one]
IC50 (CB1 receptor): 325 nM
IC50 (CB2 receptor): 30 nM
paw volume, percent of vehicle (inflammatory pain; 20 mg/kg p.o.): 96%
reduction of ΔLT, thermal stimulus (inflammatory pain; 20 mg/kg p.o.): ineffective
reduction in Δforce, mechanical stimulus (inflammatory pain; single dose of 20 mg/kg p.o.): 8%
inhibition of writhing responses as compared to vehicle treated group (visceral pain; 2 mg/kg i.v.): 91%
inhibition of pain response as compared to untreated animals (visceral pain): 56%

CCCCCCC(C)(C)c1cc(OC(=O)CCC(=O)O)c([C@H]2CC(=O)C3CC2C3(C)C)c(OC(=O)CCC(=O)O)c1 (single isomer, unassigned; (-)) [Compound 18C, (−)-4-{4-[1,1-dimethylheptyl]-2,6-disuccinate-phenyl}-6,6-dimethyl-bicyclo[3.1.1]heptan-2-one]
IC50 (CB1 receptor): 117 nM
IC50 (CB2 receptor): 1.52 nM
inhibition of pain response as compared to untreated animals (visceral pain): 93%

CCCCCCC(C)(C)c1cc(OP(=O)(OCC)OCC)c([C@H]2CC(=O)C3CC2C3(C)C)c(OP(=O)(OCC)OCC)c1 (single isomer, unassigned; (-)) [Compound 18D, (−)-4-{4-[1,1-dimethylheptyl]-2,6-bi-diethylphosphate-phenyl}-6,6-dimethyl-bicyclo[3.1.1]heptan-2-one]
IC50 (CB1 receptor): > 1000 nM
IC50 (CB2 receptor): > 1000 nM
inhibition of writhing responses as compared to vehicle treated group (visceral pain; 2 mg/kg i.v.): minimal effect

Cc1ccc(-c2cc(C(F)(F)F)nn2-c2ccc(S(N)(=O)=O)cc2)cc1 [celecoxib, reference compound]
activity in visceral pain model (visceral pain): inactive

O=C(O)/C=C/C(=O)O [fumaric acid, reference compound]
activity in visceral pain model (visceral pain): inactive

SR144528 [reference compound]
effect of antagonist alone on number of writhing responses (visceral pain): had not effect

Cc1c(C(=O)NN2CCCCC2)nn(-c2ccc(Cl)cc2Cl)c1-c1ccc(Cl)cc1 [SR141716A, reference compound]
effect of antagonist alone on number of writhing responses (visceral pain): had not effect

C[C@H]1C[C@@H]2[C@H]([C@@H](O)C[C@@]3(C)[C@H]2CC[C@]3(O)C(=O)CO)[C@@]2(C)C=CC(=O)C=C12 [methylprednisolone, reference compound]
reduction in AUC of clinical score (MBP induced acute EAE): 34%

(−)-4-{4-[1,1-Dimethylpentyl]-2-succinate-6-hydroxy-phenyl}-6,6-dimethyl-bicyclo[3.1.1]heptan-2-one [Compound 18E]
IC50 (CB1 receptor; read-out: CB1 IC50, displacement of radioligand): 315 nM
IC50 (CB2 receptor; read-out: CB2 IC50, displacement of radioligand): 7.4 nM
inhibition of writhing responses as compared to vehicle treated group (visceral pain; 2 mg/kg i.v.): minimal effect
inhibition of pain response as compared to untreated animals (visceral pain): not effective
inhibition of iNOS gene expression (iNOS): 25%
